In ChEMBL document CHEMBL1140364, “Anxiolytic effects of benzalphthalides” (2005):

Legend:
Type in all cases: functional
[1] = test system: Mus musculus; experiment: Total number of entries into the open and closed arms of the maze for anxiolytic activity in ICR mouse through elevated plus test after intraperitoneal injection of 15 mg/kg
[2] = test system: Mus musculus; experiment: Number of entries into the open arms of the maze for anxiolytic activity in ICR mouse through elevated plus maze test after intraperitoneal injection of 15 mg/kg
[3] = test system: Mus musculus; experiment: Time spent into the open arms of the maze for anxiolytic activity in ICR mouse through elevated plus maze test after intraperitoneal injection of 15 mg/kg
[4] = test system: Mus musculus; experiment: Percentage number of entries into the open arms of the maze for anxiolytic activity in ICR mouse through elevated plus test after intraperitoneal injection of 15 mg/kg
[5] = test system: Mus musculus; experiment: Number of entries into the closed arms of the maze for anxiolytic activity in ICR mouse through elevated plus test after intraperitoneal injection of 15 mg/kg

Row | Structure (SMILES) | Total number of entries [1] | No. of entries [2] | Spent time [3] [h] | No. of entries [4] [%] | No. of entries [5]
1 | C[S+]([O-])c1ccc(/C=C2\OC(=O)c3ccccc32)cc1 (stereo not given) | 19.8 | 10.8 | 0.0427 | 55.6 | 9
2 | O=C1O/C(=C\c2ccc([N+](=O)[O-])cc2)c2ccccc21 | 16.3 | 9 | 0.0441 | 57.2 | 7.3
3 | CSc1ccc(/C=C2\OC(=O)c3ccccc32)cc1 | 17.7 | 7.9 | 0.0363 | 49.5 | 9.9
4 | COc1ccc(/C=C2\OC(=O)c3ccc(C(N)=O)cc32)cc1 | 24 | 13 | 0.0348 | 50.2 | 11.5
5 | COc1cc(/C=C2\OC(=O)c3ccccc32)cc(OC)c1OC | 17.3 | 8.3 | 0.0296 | 44.8 | 9
6 | O=C1O/C(=C\c2ccc(Cl)cc2)c2ccccc21 | 16.5 | 8 | 0.0444 | 55.8 | 8.5
7 | O=C1O/C(=C\c2ccc3c(c2)OCO3)c2ccccc21 | 20.2 | 11.2 | 0.0418 | 54.4 | 9
8 | CS(=O)(=O)c1ccc(/C=C2\OC(=O)c3ccccc32)cc1 | 16.4 | 10.6 | 0.052 | 69.9 | 5.6
9 | COc1ccc(/C=C2\OC(=O)c3cc([N+](=O)[O-])c([N+](=O)[O-])cc32)cc1 | 22.2 | 11.7 | 0.0359 | 51.7 | 10.5
10 | CCCCCCCCCCCC(=O)OCCOCC(OCCO)C1OCC(OCCO)C1OCCO (stereo not given) | 18.5 | 9.6 | 0.034 | 51.2 | 8.9
11 | COc1ccc(/C=C2\OC(=O)c3ccccc32)cc1 | 20.1 | 13 | 0.0493 | 64.1 | 7.1
12 | CN1C(=O)CN=C(c2ccccc2)c2cc(Cl)ccc21 [DIAZEPAM] | 19.5 | 15.8 | 0.064 | 82 | 3.7
13 | C=C(C)[C@@H]1[C@H]2OC(=O)[C@@H]1[C@]1(O)C[C@H]3OC34C(=O)O[C@H]2[C@@]41C.CC(C)(O)[C@@H]1[C@H]2OC(=O)[C@@H]1[C@]1(O)C[C@H]3OC34C(=O)O[C@H]2[C@@]41C (stereo not given in full) [PICROTOXIN] | 11.8 | 2.5 | 0.00739 | 19 | 9.4
